Consider two molecules from patent US8822526B2, “Synergistic pharmaceutical combination for the treatment of cancer” (Piramal Enterprises Limited, priority 2007, dated 2014).

Structures are written as SMILES. Values joined by “and” are separate entries in the source; they are usually repeats but may differ in a detail not shown here. Identical values can stand only once. Like-named read-outs stand apart in the source and are kept apart here.

In series [1] the test system is pancreatic cells (Panc-1). In words: Analysis of cell cycle distribution and flow cytometry (sub G1 apoptosis). The series is classed as cell-based, human. The note with it: FIG. 3: 70 nM gemcitabine alone (24 hours); 300 nM compound A alone (72 hours); combination 70 nM gemcitabine (24 hours) followed by 300 nM compound A (72 hours).
Series [2] deals with human pancreatic (Panc-1) cell line. The series is described as follows: In vitro cytotoxicity assay (MTS). The series is classed as cell-based.
Series [3] relates to human non-small cell lung carcinoma H-460 cells. In words: In vitro cytotoxicity assay (MTS). As to the method: The cytotoxicity assay used was MTS (3-(4,5-dimethylthiazol-2-yl)-5-(3-carboxymethoxyphenyl)-2-(4-sulfophenyl)-2H-tetrazolium, inner salt) assay. The human non-small cell lung carcinoma H-460 cells were seeded at a density of 1500 cells/well in 180 μL of culture medium in 96-well plate and incubated overnight to allow the cells to adhere. Varying concentrations of the drugs contained in the combination were added to the wells and incubated for an appropriate period of time in humidified 5% CO2 incubator at 37° C. in case of a single drug exposure. […] Control wells were treated with a vehicle. At the end of the incubation period, the medium was removed from the wells and 20 μL of MTS (2 mg/mL in phosphate buffer saline, pH 6-6.5 and filter sterilized) and 1 μL of phenazine methosulfate (PMS, 3 mM in phosphate buffered saline, pH 7.3 and filter sterilized) was added to each well and the total volume was adjusted to 200 μL with complete medium. The plate was incubated for 2-4 hours in humidified 5% CO2 incubator at 37° C.
(§1) After completion of the drugs treatment i.e. at the end of 96 hours the plates were processed for MTS viability assay and the percent cytotoxicity was calculated as compared to control.
as §1
(§2) The human non-small cell lung carcinoma H-460 cells were seeded at a density of 1500 cells/well. […] After completion of the drugs treatment i.e. at the end of 120 hours the plates were processed for MTS viability assay and the percent cytotoxicity was calculated as compared to control.
as §2
The human non-small cell lung carcinoma H-460 cells were seeded at a density of 1500 cells/well. […] After completion of the drugs treatment i.e. at the end of 120 hours, the plates were processed for MTS viability assay and the percent cytotoxicity was calculated as compared to control.
(§3) After completion of the drugs treatment i.e. at the end of 48 hours the plates were processed for MTS viability assay and the percent cytotoxicity was calculated as compared to control.
The plates were processed for MTS viability assay and the percent cytotoxicity was calculated as compared to control.
as §3
The human non-small cell lung carcinoma H-460 cells were seeded at a density of 1500 cells/well. As per Table 16A the cells were first treated with either of the drugs alone i.e. with doxorubicin or flavopiridol alone. Doxorubicin treatment was for the first 24 hours followed by complete medium for 96 hours while in case of flavopiridol, the first 24 hours was in complete medium followed by flavopiridol for the next 96 hours. […] After completion of the drugs treatment i.e. at the end of 120 hours the plates were processed for MTS viability assay and the percent cytotoxicity was calculated as compared to control.
As per Table 16B the cells were first treated with either of the drugs alone i.e. with doxorubicin or flavopiridol alone. Flavopiridol treatment was for the first 96 hours followed by complete medium for 24 hours while in case of doxorubicin, the first 96 hours was in complete medium followed by doxorubicin for 24 hours. […] After completion of the drugs treatment i.e. at the end of 120 hours, the plates were processed for MTS viability assay and the percent cytotoxicity was calculated as compared to control.
The human non-small cell lung carcinoma H-460 cells were seeded at a density of 1500 cells/well.

Series [4] deals with NCI-H460/R. The note with it: J. Chemother., 2006 February; 18(1) 66-73; cited from earlier work.

As to `CN1CC[C@@H](c2c(O)cc(O)c3c(=O)cc(-c4ccccc4Cl)oc23)[C@@H]1CO.Cl` [Compound A, (+)-trans-2-(2-Chloro-phenyl)-5,7-dihydroxy-8-(2-hydroxymethyl-1-methyl-pyrrolidin-3-yl)-chromen-4-one hydrochloride], the “apoptosis (sub G1 phase)” value in series [1] came to 4.3%. Further, the “IC30 concentration after 48 hours treatment” value was approximately 300 nM in series [2] (Panc-1 cells, 48 hours treatment); 800 nM and ~700 nM in series [3] (H-460 cells, 48 hours treatment, hydrochloride). Moreover, the “% Cytotoxicity” value is reported as 34% in series [2] (complete medium 24 hours, then compound A 300 nM 72 hours); 35% in series [3] (human, 45 h, 1000 nM); 17% in series [3] (human, 72 h, 800 nM); 36% in series [3] (human, 72 h, 1200 nM); 19% in series [3] (human, 96 h, 800 nM). Moreover, the IC50 in series [3] (Homo sapiens, NCI-H460, 48 h, read-out: IC50 concentration after 48 hours treatment, H-460 cells, 48 hours treatment) was 1200 nM; in series [3] (read-out: IC50 concentration after 48 hours treatment, H-460 cells, 48 hours treatment, hydrochloride), approximately 1000 nM. For the same molecule, in series [3] (Homo sapiens, NCI-H460, 120 h, compound A 800 nM alone for 120 hours), the cytotoxicity at 0.8 µM is 24%. In addition, the cytotoxicity at 1.2 µM in series [3] (Homo sapiens, NCI-H460, 120 h, compound A 1200 nM alone for 120 hours) was found to be 44%.

Consider `COc1cccc2c1C(=O)c1c(O)c3c(c(O)c1C2=O)C[C@@](O)(C(=O)CO)C[C@@H]3O[C@H]1C[C@H](N)[C@H](O)[C@H](C)O1` [Doxorubicin], for which the “resistance of NCI-H460/R to doxorubicin” value in series [4] was 96.2 fold. Moreover, the “% Cytotoxicity” value was 2% in series [3] (Doxorubicin 30 nM alone for 120 hours); 0% in series [3] (Doxorubicin 30 nM first 24 hours, then complete medium 96 hours, MTS at 120 hours); 14% and 12% in series [3] (Doxorubicin 70 nM first 24 hours, then complete medium 96 hours, MTS at 120 hours); 24% in series [3] (Doxorubicin 100 nM alone for 120 hours); 16% in series [3] (Doxorubicin 100 nM first 24 hours, then complete medium 72 hours, MTS at 96 hours); 8% in series [3] (Doxorubicin 100 nM first 24 hours, then complete medium 96 hours, MTS at 120 hours). For the same molecule, the “% Cytotoxicity” value was 16% and 9% in series [3] (Doxorubicin 100 nM first 24 hours, then complete medium 96 hours, MTS at 120 hours, listed as Doxo.); 17% in series [3] (Doxorubicin 200 nM first 24 hours, then complete medium 96 hours, MTS at 120 hours). Moreover, the cytotoxicity at 0.03 µM in series [3] (Homo sapiens, NCI-H460, 120 h, Doxorubicin 30 nM alone for 120 hours) is 3%. Moreover, the cytotoxicity at 0.07 µM in series [3] (Homo sapiens, NCI-H460, 120 h, Doxorubicin 70 nM alone for 120 hours) was 28%. Moreover, in series [3] (Homo sapiens, NCI-H460, 120 h, Doxorubicin 100 nM alone for 120 hours), the cytotoxicity at 0.1 µM came to 19%. In series [3] (Homo sapiens, NCI-H460, 120 h, Doxorubicin 200 nM alone for 120 hours), the cytotoxicity at 0.2 µM was 48%.
